Experimental data as given in patent publication US6509377B1, “Use of a 2-hydroxy-4-trifluoromethylbenzoic acid derivatives as inhibitors of the activation of the nuclear transcription factor NF-κB” (J. Uriach & Cia, S.A., priority 1999, dated 2003).

What was measured:
Assay type in all cases: cell-based
TNF-α = TNF-α production induced by LPS in human PBMC (enzymatic immunoassay); conditions: LPS 10 μg/ml, 19 hours
Protocol: Mononuclear cells (PBMC) were obtained from blood of healthy donors from the Hospital de Sant Pau (Barcelona) following the procedure described in example 3. Cells were diluted at a concentration of 2 million/ml in RPMI medium supplemented with 10% fetal calf serum and were incubated (37° C., 5% CO2) with triflusal, HTB or vehicle (DMSO) in the presence of 10 μg/ml E.coli lipopolysaccharide (LPS, 026:B6 serotype; Sigma), for 19 hours. The cell suspension was then centrifuged at 2,000 g for 10 minutes at 4° C., and the resulting supernatant was stored at −70° C. for later analysis. The cytokine content was determined by enzymatic immunoassay, after 1/100 dilution of the samples.

COX-2 = test: PGE2 production induced by LPS in human PBMC (ELISA); conditions: LPS 10 μg/ml, 19 hours, 0.1-5 mM
Protocol: Mononuclear cells (PBMC) were obtained from blood of healthy donors from the Hospital de Sant Pau, (Barcelona) who had not taken any antiinflammatory drug during a period of not less than 2 weeks before blood extraction. Starting from a volume of about 80 ml of heparinized human blood (10 U/ml), this was diluted (1:1) with PBS (pH 7.4; Dulbecco) without calcium, magnesium nor sodium bicarbonate. 15 ml of Ficoll solution (d=1.077 at 20° C.; Biochrom KG) were placed in 50-ml Falcon tubes. To this solution a volume of about 25 ml per tube of the blood previously diluted with PBS was carefully added and the tubes were then centrifuged at 1,200 g for 20 minutes. Mononudear cells concentrate on a whitish interphase between the plasma and the Ficoll solution. This interphase was collected with a Pasteur pipette and was diluted 1:1 with PBS. It was then centrifuged at 300 g, 10 min. The resulting pellet was resuspended in 50 ml PBS and was again centrifuged at 200 g for 10 min in order to remove platelet contamination. Finally, the resulting pellet was resuspended in 20 ml RPMI-1640 culture medium (GibcoBRL) supplemented with 10% fetal calf serum. […]
Finally, the supernatants from each experiment that had been stored at −70° C. were defrozen and the amount of PGE2 in solution was determined using specific ELISA kits (Amershan-Biotrak RPN22).

[1] = test system: cocultures of rat neurons and astrocytes; test: Neuronal cell death in cocultures of neurons and astrocytes induced by oxygen-glucose deprivation (OGD); conditions: 4 h OGD, 24-hour recovery; triflusal 10 and 30 μg/ml; HTB 20 and 100 μg/ml
Protocol: To carry out this study, an in vitro model of neuronal ischemia based on cocultures of neurons and glial cells was used. Primary cultures of type 1 astrocytes were prepared from 1-day old Wistar rats. Astrocytes were plated onto 60 mm, poly-D-lysine-coated plates. These cells were allowed to grow until they were confluent (about 11 days) and then rat primary neurons were plated onto them and were allowed to grow for 10 days. In addition, separate cultures of each one of the two types of cells were prepared.
Half of the cultures were exposed for four hours to oxygenlucose deprivation (OGD), followed by a 24-hour recovery period. Both the cells exposed to OGD and control cells, were treated at the start of OGD with 0, 10 and 30 μg/ml triflusal in a series of experiments and with 0, 20 and 100 μg/ml HTB in another series. After the 24-hour recovery period, the release of lactate dehydrogenase (LDH) into the medium was determined as a measure of cellular death, as well as the degree of apoptosis in the cultures (using the TUNEL assay) and total neuron and astrocyte counts present in the coculture (using Hoescht staining).

NF-κB = test: Activation of NF-κB induced by immune complexes in rat peritoneal macrophages (EMSA); conditions: 4 mM, 100 μg/ml IgG/ovalbumin, 2 hours
Protocol: Rat peritoneal cavity cells were extracted and resuspended in DMEM culture medium in the absence of serum previously supplemented with 100 U/ml penicillin, 100 μg/ml streptomycin, 50 μg/ml gentamycin, 2 mM glutamine and 0.5 mM L-arginine. Cells were incubated for 2 hours in culture plates at 37° C. and those which had not adhered to the plates were removed by washing three times with the same fresh medium. More than 95% of the adherent cells were macrophages, as assessed by their ability to engulf zymosan particles and nonspecific esterase staining. Macrophages were kept at 37° C. under a 5% CO2 atmosphere and two hours later non-adherent cells were removed and the peritoneal macrophages adhered to the plates were incubated with 100 μg/ml IgG/ovalbumin immune complexes prepared from; rabbit antiserum for 2 hours in the presence or absence (vehicle) of triflusal or HTB (4 mM, both).
After incubation, macrophages were washed twice with PBS and the degree of activation (binding to DNA) of the transcription factor NF-κB was determined using the EMSA assay, described in detail in Example 1.

O=C(O)c1ccc(C(F)(F)F)cc1O [HTB, 2-hydroxy-4-trifluoromethylbenzoic acid]
inhibition of LPS-induced TNF-α production (TNF-α; 0.3 mM): almost completely inhibit | inhibition of LPS-induced TNF-α production (TNF-α; 1 mM): almost completely inhibit | inhibition of PGE2 production (COX-2): concentration-dependently inhibit | increase in LDH release induced by OGD [1]: completely inhibited | increase in number of apoptotic neurons induced by OGD (TUNEL) [1]: completely inhibited | inhibition of the activation of NF-κB induced by immune complexes (NF-κB): markedly inhibit

CC(=O)Oc1cc(C(F)(F)F)ccc1C(=O)O [triflusal, 2-Acetyloxy-4-trifluoromethylbenzoic acid, reference compound]
inhibition of LPS-induced TNF-α production (TNF-α; 0.3 mM): almost completely inhibit | inhibition of LPS-induced TNF-α production (TNF-α; 1 mM): almost completely inhibit | inhibition of PGE2 production (COX-2): concentration-dependently inhibit | increase in LDH release induced by OGD [1]: completely inhibited | increase in number of apoptotic neurons induced by OGD (TUNEL) [1]: completely inhibited | inhibition of the activation of NF-κB induced by immune complexes (NF-κB): markedly inhibit
